Bounds are passed on as bounds.

Chain of human PDE4D catalytic domain (Q08499 380-740): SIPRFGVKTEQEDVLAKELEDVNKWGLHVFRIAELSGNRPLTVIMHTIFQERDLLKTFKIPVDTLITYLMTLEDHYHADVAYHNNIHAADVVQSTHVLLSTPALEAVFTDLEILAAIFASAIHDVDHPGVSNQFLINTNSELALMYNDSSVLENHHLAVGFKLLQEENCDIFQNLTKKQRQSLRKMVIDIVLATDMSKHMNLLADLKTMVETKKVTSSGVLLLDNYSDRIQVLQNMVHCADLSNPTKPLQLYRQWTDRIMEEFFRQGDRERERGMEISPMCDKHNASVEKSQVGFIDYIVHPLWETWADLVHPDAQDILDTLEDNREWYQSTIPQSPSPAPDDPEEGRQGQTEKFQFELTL

This assay has as its target human PDE4D catalytic domain (Homo sapiens (Human), UniProt Q08499). The assay is described as follows: PDE4 Assay (TR-FRET, FAM-cAMP cleavage). The class given is biochemical. Particulars: human PDE4D catalytic domain (UniProt Q08499 [S380-L740]); 50% inhibition of substrate cleavage; read-out: PDE4 IC50 range. In outline: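 PDE4D catalytic domain (S380-L740) incubated briefly with unlabelled cAMP plus FAM-cAMP and titrated compound. Reaction stopped with binding buffer holding metal-ion nanoparticles that bind AMP phospho groups and Tb donor, and AMP formation read by TR-FRET. IC50 versus controls, reported as ranges (nM).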
Regarding `CCn1nc(CCCOC(=O)c2ccc(C(=O)N3CCN(C(C)=O)CC3)cc2)c2c1C(=O)NCC1(CCOCC1)C2` [Example 111, 3-(1-ethyl-8-oxo-spiro[6,7-dihydro-4H-pyrazolo[3,4-c]azepine-5,4′-tetrahydropyran]-3-yl)propyl 4-(4-acetylpiperazine-1-carbonyl)benzoate], the IC50 – broadly, the concentration that inhibits the measured activity by half – was under 100 nM.

As for `CCn1nc(CCCOC(=O)c2cccc(C(N)=O)c2)c2c1C(=O)NCC1(CCOCC1)C2` [Example 113, 3-(1-ethyl-8-oxo-spiro[6,7-dihydro-4H-pyrazolo[3,4-c]azepine-5,4′-tetrahydropyran]-3-yl)propyl 3-carbamoylbenzoate], the IC50 was under 100 nM.

Consider `CCn1nc(CCCOC(=O)c2cccc(C(=O)NC)c2)c2c1C(=O)NCC1(CCOCC1)C2` [Example 114, 3-(1-ethyl-8-oxo-spiro[6,7-dihydro-4H-pyrazolo[3,4-c]azepine-5,4′-tetrahydropyran]-3-yl)propyl 3-(methyl-carbamoyl)benzoate], for which the IC50 was under 100 nM.

Consider `CCn1nc(CCCOC(=O)c2cccc(C(=O)N(C)C)c2)c2c1C(=O)NCC1(CCOCC1)C2` [Example 115, 3-(1-ethyl-8-oxo-spiro[6,7-dihydro-4H-pyrazolo[3,4-c]azepine-5,4′-tetrahydropyran]-3-yl)propyl 3-(dimethyl-carbamoyl)benzoate], for which the IC50 is under 100 nM.

As to `CCn1nc(CCCOC(=O)c2cccc(C(=O)N3CCCC3)c2)c2c1C(=O)NCC1(CCOCC1)C2` [Example 116, 3-(1-ethyl-8-oxo-spiro[6,7-dihydro-4H-pyrazolo[3,4-c]azepine-5,4′-tetrahydropyran]-3-yl)propyl 3-(pyrrolidine-1-carbonyl)benzoate], the IC50 was under 100 nM.

Turning to `CCn1nc(CCCOC(=O)c2cccc(C(=O)N3CCCCC3)c2)c2c1C(=O)NCC1(CCOCC1)C2` [Example 117, 3-(1-ethyl-8-oxo-spiro[6,7-dihydro-4H-pyrazolo[3,4-c]azepine-5,4′-tetrahydropyran]-3-yl)propyl 3-(piperidine-1-carbonyl)benzoate], the IC50 is under 100 nM.

Take `CCn1nc(CCCOC(=O)c2cccc(C(=O)N3CCOCC3)c2)c2c1C(=O)NCC1(CCOCC1)C2` [Example 118, 3-(1-ethyl-8-oxo-spiro[6,7-dihydro-4H-pyrazolo[3,4-c]azepine-5,4′-tetrahydropyran]-3-yl)propyl 3-(morpholine-4-carbonyl)benzoate]: the IC50 is under 100 nM.

As to `CCn1nc(CCCOC(=O)c2cccc(C(=O)N3CCN(C)CC3)c2)c2c1C(=O)NCC1(CCOCC1)C2` [Example 119, 3-(1-ethyl-8-oxo-spiro[6,7-dihydro-4H-pyrazolo[3,4-c]azepine-5,4′-tetrahydropyran]-3-yl)propyl 3-(4-methylpiperazine-1-carbonyl)benzoate], the IC50 is under 100 nM.

Take `CCn1nc(CCCOC(=O)c2cccc(C(=O)N3CCN(C(C)=O)CC3)c2)c2c1C(=O)NCC1(CCOCC1)C2` [Example 120, 3-(1-ethyl-8-oxo-spiro[6,7-dihydro-4H-pyrazolo[3,4-c]azepine-5,4′-tetrahydropyran]-3-yl)propyl 3-(4-acetylpiperazine-1-carbonyl)benzoate]: the IC50 is under 100 nM.

In the case of `CCn1nc(CCCCOC(=O)C(C)C)c2c1C(=O)NCC1(CCOCC1)C2` [Example 121, 4-(1-ethyl-8-oxo-spiro[6,7-dihydro-4H-pyrazolo[3,4-c]azepine-5,4′-tetrahydropyran]-3-yl)butyl 2-methyl-propanoate], the concentration for half-maximal inhibition (IC50) was under 100 nM.

For the compound `CCn1nc(CCCCOC(=O)C2CCCC2)c2c1C(=O)NCC1(CCOCC1)C2` [Example 122, 4-(1-ethyl-8-oxo-spiro[6,7-dihydro-4H-pyrazolo[3,4-c]azepine-5,4′-tetrahydropyran]-3-yl)butyl cyclopentane-carboxylate], the IC50 was under 100 nM.

On to `CCn1nc(CCCCOC(=O)c2ccc(C)cc2)c2c1C(=O)NCC1(CCOCC1)C2` [Example 123, 4-(1-ethyl-8-oxo-spiro[6,7-dihydro-4H-pyrazolo[3,4-c]azepine-5,4′-tetrahydropyran]-3-yl)butyl 4-methylbenzoate], for which the IC50 is under 100 nM.

The values are drawn from patent publication US10793580B2, “Substituted pyrazoloazepin-8-ones and their use as phosphodiesterase inhibitors” (LEO Pharma A/S, priority 2016, dated 2020).
